# Where “and” joins values, the source holds several entries; their conditions need not be identical. Equal values may be shown once.
# Key:
# [1] = test system: Adriamycin (ADR)-induced nephropathy in Balb/c mice; assay: ADR nephropathy: blinded histology of PAS-stained kidney sections; type: in vivo, mouse
# Method: Formalin-fixed paraffin-embedded kidney cortex sections 4 μm thick were stained with Periodic acid-Schiff (PAS). The slides were analyzed by a renal pathologist in a double-blind design. Glomerular sclerosis, (global and segmental), podocyte hypertrophy and podocyte hyperplasia were expressed as the percentage of glomeruli found with these abnormalities. Tubular microcysts and interstitial inflammation were scored on a 0–4 scale where 0 = 0%, 0.5 = 1–10%, 1 = 11–25%, 2: 26–50 %, 3: 51–75%, and 4 = more than 75% damage.
# [2] = test system: Adriamycin (ADR)-induced nephropathy in Balb/c mice; assay: ADR nephropathy: immunofluorescence of glomerular ABCA1 and WT1+ podocyte number; type: in vivo, mouse; settings: for Glomerular ABCA1 mean fluorescence intensity, mean / Number of Podocytes (WT1+ cells in glomeruli), mean / Glomerular ABCA1 mean fluorescence intensity / Number of Podocytes (WT1+ cells in glomeruli): ADR; for Glomerular ABCA1 mean fluorescence intensity, mean / Number of Podocytes (WT1+ cells in glomeruli), mean: group mean; for Glomerular ABCA1 mean fluorescence intensity / Number of Podocytes (WT1+ cells in glomeruli): individual mice
# Method: For the detection of ABCA1 expression, 4 μm paraffin kidney cortex sections were deparaffinized and rehydrated. Antigens were retrieved by boiling for 30 min in citrate buffer pH 6.0 (Target Retrieval Solution, Citrate pH 6, Sigma, USA). The sections were permeabilized for 30 min with 0.1% Triton X-100 in TBS. Tissue sections were incubated with 10% goat serum (cat # G9023, Millipore Sigma) and 1% BSA (cat # SP-5050-500, Vector, USA) in TBS-T for 1hr at room temperature to block any non-specific binding. Samples were then incubated overnight at 4 °C with Rat anti-ABCA1 (Novus, 1:200) and Rabbit anti-WT1 (Abcam, 1:200) antibodies in a humidified chamber. After washing extensively, samples were then incubated for 1 h at RT with fluorochrome-conjugated secondary antibodies (Invitrogen, 1:500). Antifade mounting media containing DAPI (Vectashield Plus) was added to the sections before being analyzed.
# Images were acquired using a FluoView FV1000 Confocal Microscope (Olympus) with a ×63 oil objective lens in different planes using a Z-series pattern with a step size of 0.18 μm. During analysis, individual planes were deconvoluted and stacked to produce a maximum projected image using fluview software version 4.3b (Olympus). A minimum of 5 images was captured from 5 different fields per sample. Quantification of ABCA1 glomerular mean fluorescence intensity (MFI) was done using Fiji—ImageJ software.
# [3] = test system: Col4a3 KO mice; assay: Alport syndrome model: serum cholesterol and triglycerides; type: in vivo, mouse
# [4] = test system: Col4a3 KO mice; assay: Alport syndrome model: kidney cortex cholesterol ester, total cholesterol, triglycerides; type: in vivo, mouse
# Method: Snap frozen kidney cortex samples were homogenized in 2 mM potassium phosphate buffer, pH 7, (10 µl buffer/mg tissue) using a glass douncer on ice. 100 μl of the homogenate were mixed thoroughly with 1 ml of hexane:isopropanol (3:2;v:v) per volume of tissue homogenate. The aqueous (pellet) and organic (supernatant) phases were separated by centrifugation at 12,000 × g for 5 min. Pellets (aqueous phase) were dried, reconstituted in 8 M urea, 0.1% SDS, 0.1 M NaOH, and total proteins were quantified by the BCA method (Thermofisher). The organic phase was dried by exposure to nitrogen. Lipids were then reconstituted in 100 µl isopropanol:NP-40 (9:1;v:v). Triglyceride content was assayed using a colorimetric kit according to the manufacturer’s instructions (Cayman Chemical USA). Total cholesterol and CE content were assayed using an enzymatic fluorometric method. For total cholesterol measurement, extracts were diluted 1:100 in assay buffer (100 mM potassium phosphate, 50 mM NaCl, 5 mM cholic acid, 0.1% Triton […], pH 7.4) containing cholesterol oxidase (1 U/ml), cholesterol esterase (1 U/ml), horseradish peroxidase (1 U/ml), and Amplex Red (75 µM). The reactions were incubated at 37 °C for 30 min in a black opaque 96-well plate (Greiner) and fluorescence was measured in a microplate reader (Spectramax i3X, Molecular Devices) at 530 nm excitation and 580 emission.
# For CE determination, 150 µl of the assay buffer described above, supplemented with bovine liver catalase (45 U/ml) and cholesterol oxidase (1 U/ml), was added to 25 μl of sample and incubated overnight at 37 °C to deplete free cholesterol leaving only cholesterol esters. Then, 75 µl of cholesterol ester detection reagent (1 U/ml cholesterol oxidase, 4 U/ml cholesterol esterase, 24 U/ml horseradish peroxidase, 300 µM Amplex Red) was added. The reaction was incubated at 37 °C for 30 min and the fluorescence signal was measured as described above. Internal standards included samples containing 1 mM of cholesterol and 5 μM of cholesterol oleate in order to verify the completeness of the enzymatic decomposition of free cholesterol as well as assay sensitivity and specificity.
# [5] = test system: CYPs (HLM.); assay: CYP inhibition in HLM; type: in vitro ADME, human
# [6] = Free fraction, rat; type: in vitro ADME; settings: read-out: free fraction rat / man [%]
# [7] = Free fraction, man; type: in vitro ADME; settings: rat
# [8] = test system: PgP; assay: PgP inhibition; type: in vitro ADME
# [9] = Hepatocytes Clint, human; type: in vitro ADME
# [10] = ADR + Cpd G 100 mg/Kg, single animals
# [11] = score 0: 0%, 0.5: 1–10%, 1: 11–25%, 2: 26–50%, 3: 51–75%, 4: >75%, single animals
# [12] = Col4a3 KO mice at the age of 8 weeks, individual mouse values
smiles,measurement,setting,value
O=C(N[C@@H]1CCCC[C@H]1O)c1cnc(OCC(F)(F)F)c(-c2ccc(Cl)c(Cl)c2)c1 [Cpd G],"Global glomerular sclerosis (% of gloms with), median",[1]; ADR + Cpd G 100 mg/Kg,0%
same,"Interstitial Inflammation (scale 0-4), Range",[1]; ADR + Cpd G 100 mg/Kg,0-0.5
same,"Mesangial expansion (scale 0-5), Range",[1]; ADR + Cpd G 100 mg/Kg,1-2
same,"Podocyte hyperplasia (% of gloms with), median",[1]; ADR + Cpd G 100 mg/Kg,0%
same,"Segmental glomerular sclerosis (% of gloms with), median",[1]; ADR + Cpd G 100 mg/Kg,0%
same,"Tubular microcysts (scale 0-4), Range",[1]; ADR + Cpd G 100 mg/Kg,0 -1
same,"podocyte hypertrophy (% of gloms with), median",[1]; ADR + Cpd G 100 mg/Kg,0%
same,"Global Glom. Sclerosis, % of glomeruli with",[1]; [10],0%
same,Mesangial Expansion (Scale 0-5),[1]; [10],1.25 and 1.5 and 1
same,"Podocyte Hyperplasia, % of glomeruli with",[1]; [10],0%
same,"Podocyte Hypertrophy, % of glomeruli with",[1]; [10],0%
same,"Segmental Glom. Sclerosis, % of glomeruli with",[1]; [10],0%
same,Interstitial Inflammation (Scale 0-4),[1]; [11],0 and 0.5
same,Tubular Microcysts (Scale 0-4),[1]; [11],1 and 0 and 0.5
same,"Glomerular ABCA1 mean fluorescence intensity, mean",[2]; 30mg/kg,13.76
same,"Number of Podocytes (WT1+ cells in glomeruli), mean",[2]; 30mg/kg,9.133
same,Glomerular ABCA1 mean fluorescence intensity,[2]; 30mg/kg,13.36 and 14.02 and 13.9
same,Number of Podocytes (WT1+ cells in glomeruli),[2]; 30mg/kg,11 and 9.6 and 6.8
same,"Glomerular ABCA1 mean fluorescence intensity, mean",[2]; 100mg/kg,20.2467
same,"Number of Podocytes (WT1+ cells in glomeruli), mean",[2]; 100mg/kg,14.8667
same,Glomerular ABCA1 mean fluorescence intensity,[2]; 100mg/kg,19.7 and 21.32 and 19.72
same,Number of Podocytes (WT1+ cells in glomeruli),[2]; 100mg/kg,15.4 and 14.2 and 15
same,ADR-induced glomerular degeneration with podocyte loss and loss of ABCA1 expression,[2]; immunofluorescence of renal cortex sections,prevented
same,SERUM TRIGLYCERIDES,"[3]; 8 week-old Col4a3 KO, Cpd G 4 weeks, single animals",78 mg/dL and 59 mg/dL and 83 mg/dL and 72 mg/dL
same,SERUM CHOLESTEROL,"[3]; Col4a3 KO, Cpd G 100 mg/kg",no effect on serum cholesterol
same,SERUM TRIGLYCERIDES,"[3]; Col4a3 KO, Cpd G 100 mg/kg",tended to reduce serum triglycerides
same,SERUM CHOLESTEROL,"[3]; Col4a3 KO, Cpd G 28 days, single animals",94 mg/dL and 139 mg/dL and 205 mg/dL and 126 mg/dL
same,"RENAL CHOL.ESTERS, Median","[4]; Col4A3 KO mice, treated for 28 days, group median",2.615 nmol CE/ mg protein
same,"RENAL CHOL.ESTERS (CE normalized to total proteins, kidney)","[4]; Col4A3 KO mice, treated for 28 days, individual animals",4.92 nmol CE/ mg protein and 2.49 nmol CE/ mg protein and 0.13 nmol CE/ mg protein and 2.74 nmol CE/ mg protein
same,Renal Total Cholesterol,[4]; [12],40.2 nmol TC/ mg protein and 29.4 nmol TC/ mg protein and 30.8 nmol TC/ mg protein
same,Renal Trig.,[4]; [12],89.04 nmol TG/ mg protein and 64.42 nmol TG/ mg protein and 121.19 nmol TG/ mg protein and 83.13 nmol TG/ mg protein
same,Cholesterol ester content in kidneys,"[4]; Col4a3 KO, Cpd G 28 days",significantly reduced cholesterol ester content
same,CYPs (HLM.),[5],> 25 µM
same,fraction unbound,[6],< 0.01
same,fraction unbound,[7],< 0.01
same,PgP inhibition,[8],Negative
same,Hepatocytes Clint (Fh%) (r/h),[9],> 80%

# From PMC8329197, “Compounds targeting OSBPL7 increase ABCA1-dependent cholesterol efflux preserving kidney function in two models of kidney disease” (Nature Communications, 2021)
